Each block holds one molecule with its values, some of them ahead of it.
Columns and labels:
[1] = tested on: SCID mice bearing twin HEK293-CCK2i4svR and wtHEK293 tumors; assay: Biodistribution in SCID mice bearing twin HEK293-CCK2i4svR and wtHEK293 xenografts; assay type: in vivo
Protocol: Inocula containing a suspension of freshly harvested HEK293-CCK2i4svR/wtHEK293 cells (150 μL, 1.8 × 10^7/1.4 × 10^7 cells, respectively, in normal saline) were subcutaneously (sc) injected in the right and left flanks of male SCID mice (24.5 ± 2.3 g body weight, six weeks of age on arrival day, NCSR “Demokritos” Animal House Facility). Well-palpable tumors (0.42 ± 0.37/0.25 ± […], respectively) were grown at the inoculation site 3–4 weeks later, and biodistribution was conducted. On the day of biodistribution, animals were divided into groups of four and received the radioligand through the tail vein as a bolus (100 μL, containing each of: i. 78–91 kBq [^67Ga]GAS1/2/3 corresponding to 7–17 pmol GAS1/2/3; ii. 74–92 kBq [^111In]GAS1/2/3 corresponding to 20–25 pmol GAS1/2/3; iii. 730 kBq [^177Lu]Lu-GAS1/3 corresponding to 40 pmol GAS1/3, in-vehicle: saline/EtOH 9/1 v/v). Animals were euthanized at predetermined time intervals depending upon the radionuclide applied (for [^67Ga]Ga-GAS1/2/3: 1, 4 and 24 h pi; for [^111In]In-GAS1/2/3: 4 and 24 h pi–two extra groups of mice receiving gelofusine together with [^111In]In-GAS1/2 at 4 and 24 h pi were included; and for [^177Lu]Lu-GAS1/3: 4, 24, 48, 72 and 96 h pi). Mice were dissected, and blood samples, organs of interest and tumors were rapidly collected, weighted and counted in the gamma counter. Biodistribution data was calculated as the percentage of the administered dose per gram tissue (%IA/g) with the aid of suitable standards of the administered dose and the Microsoft Excel program. Results are presented as mean % IA/g values ± SD, n = 4 per time point, as determined by the PRISM^TM 6.0 GraphPad software (San Diego, CA, USA).

HEK293-CCK2i4svR cells = assay: Radioligand uptake and internalization in HEK293-CCK2i4svR cells; assay type: cell-based, human; conditions: 1 h 37 °C, specific, of total added activity
Protocol: A day before the experiment, HEK293-CCK2i4svR cells were seeded in six-well plates. The next day, cells were rinsed with ice-cold internalization medium (IM: DMEM Glutamax-I, supplemented by 1% (v/v) FBS) and then the fresh medium was added (1.2 mL) at 37 °C. A further portion of IM (150 µL) was added in the upper well-row, and DG2 solution in IM (150 µL) was added in the lower row (to a final concentration of 1 μM; non-specific series). Each of the test radioligands, [^67Ga]Ga/[^111In]In/[^177Lu]Lu-GAS1/3 and [^67Ga]Ga/[^111In]In-GAS2, was finally added (250 fmol total conjugates in 150 μL 0.5% BSA-PBS) in all the wells and the plates were incubated at for 1 h at 37 °C in an Incubator-Orbital Shaker unit (MPM Instr. SrI, Bernareggio, MI, Italy); [^111In]In-GAS1/2/3 were incubated for 15 min, 30 min, 1 h and 2 h. At the predetermined time points, the plates were placed on ice, the medium was collected, and the plates were rinsed with 0.5% BSA-PBS (1 mL). Cells were subsequently treated with an acid-wash solution (2 × 600 µL; 50 mM glycine buffer pH 2.8, 0.1 M NaCl) and the fractions collected (membrane-bound). After briefly washing with 0.5% BSA-PBS (1 mL), the cells were lysed with 1 N NaOH (2 × 600 µL), and the fractions were collected (internalized). The radioactivity content of collected fractions was counted in the gamma counter, and the percentage of internalized and membrane-bound fractions per time point were calculated with Microsoft Excel. Specific internalized and membrane-bound counts were determined by subtracting the respective non-specific (in the presence of 1 μM DG2) from the respective total counts. Results represent specific internalized/membrane bound ± SD of total added radioactivity per well from three experiments performed in triplicate.

[2] = target: T1, human CCK2i4svR splice variant (Homo sapiens, UniProt P32239); assay: Competition binding against [125I][I-Tyr12,Leu15]gastrin-17 in HEK293-CCK2i4svR cell membranes; conditions: vs [125I][I-Tyr12,Leu15]gastrin-17, HEK293-CCK2i4svR cell membranes, 1 h 22 °C; mean ± SD
T1 construct: expressed in transfected cells; membrane homogenates
T1 sequence (P32239 1-516 isoform P32239-2): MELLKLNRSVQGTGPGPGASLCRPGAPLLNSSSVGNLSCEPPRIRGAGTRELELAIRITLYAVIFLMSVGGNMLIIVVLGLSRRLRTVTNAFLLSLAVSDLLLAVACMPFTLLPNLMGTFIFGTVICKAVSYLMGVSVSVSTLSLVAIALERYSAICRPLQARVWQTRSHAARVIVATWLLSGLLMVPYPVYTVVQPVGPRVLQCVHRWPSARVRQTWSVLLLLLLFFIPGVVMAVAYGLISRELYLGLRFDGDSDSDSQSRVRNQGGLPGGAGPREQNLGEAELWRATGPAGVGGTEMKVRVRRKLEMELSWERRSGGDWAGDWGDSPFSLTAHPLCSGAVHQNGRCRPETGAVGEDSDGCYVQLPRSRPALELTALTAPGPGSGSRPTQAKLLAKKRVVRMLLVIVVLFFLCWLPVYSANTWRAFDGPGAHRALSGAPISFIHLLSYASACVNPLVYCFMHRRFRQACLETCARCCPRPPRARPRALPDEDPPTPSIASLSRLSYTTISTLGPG
Protocol: Competition binding assays for the metal-free GAS1/2/3 and the corresponding metal-tagged [^natGa]Ga/[^natIn]In/[^natLu]Lu-GAS1/3 and [^natGa]Ga/[^natIn]In-GAS2 analogs were conducted against the [^125I][I-Tyr^12,Leu^15]gastrin-17 radioligand in membrane homogenates harvested from HEK293-CCK2i4svR cells, as previously described. Briefly, each of the above analogs, or unmodified Z360 serving as control, was incubated in triplicates of increasing concentrations (10^−13–10^−6 M) with [^125I][I-Tyr^12,Leu^15]gastrin-17 (50 pM, ≈40,000 cpm) and membrane homogenate in binding buffer (300 µL, pH 7.4, 50 mM HEPES, 1% BSA, 5.5 mM MgCl2, 35 µM bacitracin) for 1 h at 22 °C. Incubation was interrupted by rapid filtration through glass fiber filters (Whatman GF/B, presoaked in binding buffer for at least 1 h) on a Brandel Cell Harvester (Adi Hassel Ingenieur Büro, Munich, Germany) and subsequent rinsing with ice-cold washing buffer (10 mM HEPES pH 7.4, 150 mM NaCl). The radioactivity content of individual filters was measured in a gamma counter (automated multi-sample well-type instrument with a NaI(Tl) 3′ crystal, Canberra Packard Cobra^TM Quantum U5003/1, Auto-Gamma® counting system). The 50% inhibitory concentration (IC50) was determined by nonlinear regression analysis according to a one-site model using PRISM 6 (Graph Pad Software, San Diego, CA, USA). Values are expressed as mean ± standard deviation (SD) of three independent experiments performed in triplicate.

Compound: CC(C)(C)C(=O)CN1C(=O)[C@H](NC(=O)Nc2cccc(C(=O)NCCOCCOCCOCCNC(=O)[C@H](CCC(=O)O)NC(=O)CCC(C(=O)O)N3CCN(CC(=O)[O-])CCN(CC(=O)[O-])CCN(CC(=O)[O-])CC3)c2)CN(C2CCCCC2)c2ccccc21.[67Ga+3] (stereo in doubt) [[^67Ga]Ga-GAS3]
Biodistribution, Blood ([1]; 1 h pi): 8.61 ± 1.17 %IA/g
Biodistribution, CCK2i4svR(+) Tumor ([1]; 1 h pi): 21.75 ± 4.90 %IA/g
Biodistribution, CCK2i4svR(-) Tumor ([1]; 1 h pi): 2.52 ± 0.28 %IA/g
Biodistribution, Femur ([1]; 1 h pi): 1.60 ± 0.31 %IA/g
Biodistribution, Heart ([1]; 1 h pi): 2.23 ± 0.38 %IA/g
Biodistribution, Intestines ([1]; 1 h pi): 1.53 ± 0.19 %IA/g
Biodistribution, Kidneys ([1]; 1 h pi): 9.09 ± 1.51 %IA/g
Biodistribution, Liver ([1]; 1 h pi): 5.62 ± 0.40 %IA/g
Biodistribution, Lungs ([1]; 1 h pi): 4.32 ± 0.58 %IA/g
Biodistribution, Muscle ([1]; 1 h pi): 0.82 ± 0.14 %IA/g
Biodistribution, Pancreas ([1]; 1 h pi): 2.51 ± 0.22 %IA/g
Biodistribution, Spleen ([1]; 1 h pi): 1.96 ± 0.13 %IA/g
Biodistribution, Stomach ([1]; 1 h pi): 1.51 ± 0.13 %IA/g
Biodistribution, Blood ([1]; 4 h pi): 2.23 ± 0.39 %IA/g
Biodistribution, CCK2i4svR(+) Tumor ([1]; 4 h pi): 20.39 ± 3.96 %IA/g
Biodistribution, CCK2i4svR(-) Tumor ([1]; 4 h pi): 1.15 ± 0.18 %IA/g
Biodistribution, Femur ([1]; 4 h pi): 0.78 ± 0.10 %IA/g
Biodistribution, Heart ([1]; 4 h pi): 0.76 ± 0.07 %IA/g
Biodistribution, Intestines ([1]; 4 h pi): 1.59 ± 0.19 %IA/g
Biodistribution, Kidneys ([1]; 4 h pi): 7.86 ± 0.48 %IA/g
Biodistribution, Liver ([1]; 4 h pi): 4.97 ± 0.74 %IA/g
Biodistribution, Muscle ([1]; 4 h pi): 0.25 ± 0.05 %IA/g
Biodistribution, Pancreas ([1]; 4 h pi): 0.77 ± 0.11 %IA/g
Biodistribution, Spleen ([1]; 4 h pi): 1.60 ± 0.39 %IA/g
Biodistribution, Stomach ([1]; 4 h pi): 0.61 ± 0.12 %IA/g
Biodistribution, Blood ([1]; 24 h pi): 0.14 ± 0.02 %IA/g
Biodistribution, CCK2i4svR(+) Tumor ([1]; 24 h pi): 5.37 ± 1.00 %IA/g
Biodistribution, CCK2i4svR(-) Tumor ([1]; 24 h pi): 0.61 ± 0.08 %IA/g
Biodistribution, Femur ([1]; 24 h pi): 0.52 ± 0.07 %IA/g
Biodistribution, Heart ([1]; 24 h pi): 0.17 ± 0.02 %IA/g
Biodistribution, Intestines ([1]; 24 h pi): 0.39 ± 0.06 %IA/g
Biodistribution, Kidneys ([1]; 24 h pi): 1.98 ± 0.45 %IA/g
Biodistribution, Liver ([1]; 24 h pi): 2.48 ± 0.34 %IA/g
Biodistribution, Lungs ([1]; 24 h pi): 2.43 ± 1.04 %IA/g
Biodistribution, Muscle ([1]; 24 h pi): 0.06± 0.00 %IA/g
Biodistribution, Pancreas ([1]; 24 h pi): 0.17 ± 0.03 %IA/g
Biodistribution, Spleen ([1]; 24 h pi): 1.67 ± 0.37 %IA/g
Biodistribution, Stomach ([1]; 24 h pi): 0.19 ± 0.03 %IA/g
Background clearance / excretion route ([1]; mouse, in vivo): cleared mainly via the kidneys
Cell uptake (internalized + membrane-bound) (HEK293-CCK2i4svR cells): 4.95 ± 0.51%

Compound: CC(C)(C)C(=O)CN1C(=O)[C@H](NC(=O)Nc2cccc(C(=O)NCCOCCOCCOCCNC(=O)[C@H](CCC(=O)O)NC(=O)CCC(C(=O)O)N3CCN(CC(=O)[O-])CCN(CC(=O)[O-])CCN(CC(=O)[O-])CC3)c2)CN(C2CCCCC2)c2ccccc21.[Ga+3] (stereo partly drawn) [[^natGa]Ga-GAS3]
IC50 [2]: 4.8 ± 0.6 nM

Compound: CC(C)(C)C(=O)CN1C(=O)[C@H](NC(=O)Nc2cccc(C(=O)NCCOCCOCCOCCNC(=O)[C@H](CCC(=O)O)NC(=O)CCC(C(=O)O)N3CCN(CC(=O)[O-])CCN(CC(=O)[O-])CCN(CC(=O)[O-])CC3)c2)CN(C2CCCCC2)c2ccccc21.[In+3] (stereo partly drawn) [[^natIn]In-GAS3]
IC50 [2]: 1.9 ± 0.2 nM

Compound: CC(C)(C)C(=O)CN1C(=O)[C@H](NC(=O)Nc2cccc(C(=O)NCCOCCOCCOCCNC(=O)[C@H](CCC(=O)O)NC(=O)CCC(C(=O)O)N3CCN(CC(=O)[O-])CCN(CC(=O)[O-])CCN(CC(=O)[O-])CC3)c2)CN(C2CCCCC2)c2ccccc21.[Lu+3] (stereo partly drawn) [[^natLu]Lu-GAS3]
IC50 [2]: 4.3 ± 0.9 nM

Next, values leading:

IC50 [2]: 13.8 ± 2.7 nM
Compound: CC(C)(C)C(=O)CN1C(=O)[C@H](NC(=O)Nc2cccc(C(=O)NCCOCCOCCOCCNC(=O)[C@H](CCC(=O)O)NC(=O)CN3CCN(CC(=O)[O-])CCN(CC(=O)[O-])CCN(CC(=O)[O-])CC3)c2)CN(C2CCCCC2)c2ccccc21.[Ga+3] [[^natGa]Ga-GAS1]

IC50 [2]: 8.8 ± 1.6 nM
Compound: CC(C)(C)C(=O)CN1C(=O)[C@H](NC(=O)Nc2cccc(C(=O)NCCOCCOCCOCCNC(=O)[C@H](CCC(=O)O)NC(=O)CCC(C(=O)[O-])N3CCN(CC(=O)[O-])CCN(CC(=O)[O-])CC3)c2)CN(C2CCCCC2)c2ccccc21.[Ga+3] (stereo partly drawn) [[^natGa]Ga-GAS2]

IC50 [2]: 5 ± 1.1 nM
Compound: CC(C)(C)C(=O)CN1C(=O)[C@H](NC(=O)Nc2cccc(C(=O)NCCOCCOCCOCCNC(=O)[C@H](CCC(=O)O)NC(=O)CN3CCN(CC(=O)[O-])CCN(CC(=O)[O-])CCN(CC(=O)[O-])CC3)c2)CN(C2CCCCC2)c2ccccc21.[In+3] [[^natIn]In-GAS1]

IC50 [2]: 53.2 ± 2.7 nM
Compound: CC(C)(C)C(=O)CN1C(=O)[C@H](NC(=O)Nc2cccc(C(=O)NCCOCCOCCOCCNC(=O)[C@H](CCC(=O)O)NC(=O)CCC(C(=O)[O-])N3CCN(CC(=O)[O-])CCN(CC(=O)[O-])CC3)c2)CN(C2CCCCC2)c2ccccc21.[In+3] (stereo partly drawn) [[^natIn]In-GAS2]

IC50 [2]: 12.4 ± 0.2 nM
Compound: CC(C)(C)C(=O)CN1C(=O)[C@H](NC(=O)Nc2cccc(C(=O)NCCOCCOCCOCCNC(=O)[C@H](CCC(=O)O)NC(=O)CN3CCN(CC(=O)[O-])CCN(CC(=O)[O-])CCN(CC(=O)[O-])CC3)c2)CN(C2CCCCC2)c2ccccc21.[Lu+3] [[^natLu]Lu-GAS1]

Source: paper PMC8954547, “Nonpeptidic Z360-Analogs Tagged with Trivalent Radiometals as Anti-CCK2R Cancer Theranostic Agents: A Preclinical Study” (Pharmaceutics, 2022)
